In US11826351B2, “Compounds useful as kinase inhibitors” (Loxo Oncology, Inc., priority 2015, dated 2023):
Read-outs that look alike come from different tables or passages of the source.

Experiments:
[1] = biological target: T1, Recombinant BTK^C481S kinase (Homo sapiens, UniProt Q06187, C481S); experiment: BTK C481S binding affinity (LanthaScreen TR-FRET); conditions: Kinase Tracer 236, 5 h incubation
T1 construct: purchased SignalChem
Protocol: (§1) BTK^C481S binding affinity of each compound tested was determined using a time-resolved fluorescence resonance energy transfer (TR-FRET) methodology. 5 nM Recombinant BTK^WT kinase, varying concentrations of inhibitor, 2 nM LanthaScreen™ Eu anti-His Antibody and 30 nM Kinase Tracer 236 was incubated in 1× LanthaScreen™ Kinase Buffer A for 5 h. Recombinant BTK^C481S kinase was purchased from SignalChem and all LanthaScreen™ components were purchased from Invitrogen. Measurements were performed in a reaction volume of 30 μL using half-area 96-well assay plates. The TR-FRET signal was read on a plate reader with an excitation wavelength of 340 nm and detection wavelengths of 615 and 665 nm. Binding affinity was determined for each compound by measuring TR-FRET signal at various concentrations of compound and plotting the relative fluorescence units against the inhibitor concentration to estimate the IC50 from log[Inhibitor] vs response using the Variable Slope model in Graphpad prism from Graphpad software (San Diego, Calif.).

[2] = test system: OCI-Ly10 human DLBCL cells; experiment: OCI-Ly10 anti-proliferative activity (Resazurin); assay type: cell-based; conditions: OCI-Ly10 cells, 72 h compound treatment, Resazurin, read-out: Proliferation Assay OCI-Ly10-20% FBS
Protocol: Compounds were assayed for effects on the growth of OCI-Ly10 human DLBCL cells that are dependent on NFκB signalling. […] Cells were then plated at 7.5×10^3 cells per well in 96-well plates in varying concentrations of compound and incubated for 72 h at 37° C. An additional plate of cells to be used as the Day 0 read was seeded without compound addition, Resazurin was added to each well, incubated for 5 h and the fluorescence measured at 590 nm. After 72 h of compound treatment, Resazurin was added to each well of the compound treated plates, incubated for 5 h and the fluorescence measured at 590 nm. The IC50 was then calculated by subtracting the average Day 0 value from each well value from the treated plates, each treatment was then calculated as a percentage of the DMSO control and the percentages plotted against the inhibitor concentration to estimate the IC50 from log[Inhibitor] vs response using the Variable Slope model in Graphpad prism from Graphpad software (San Diego, Calif.).

Recombinant EGFR = biological target: T2, Recombinant EGFR (Homo sapiens, UniProt P00533); experiment: EGFR binding affinity (LanthaScreen TR-FRET); conditions: Kinase Tracer 199, 5 h incubation
T2 construct: purchased Invitrogen
T2 sequence (P00533 25-1210): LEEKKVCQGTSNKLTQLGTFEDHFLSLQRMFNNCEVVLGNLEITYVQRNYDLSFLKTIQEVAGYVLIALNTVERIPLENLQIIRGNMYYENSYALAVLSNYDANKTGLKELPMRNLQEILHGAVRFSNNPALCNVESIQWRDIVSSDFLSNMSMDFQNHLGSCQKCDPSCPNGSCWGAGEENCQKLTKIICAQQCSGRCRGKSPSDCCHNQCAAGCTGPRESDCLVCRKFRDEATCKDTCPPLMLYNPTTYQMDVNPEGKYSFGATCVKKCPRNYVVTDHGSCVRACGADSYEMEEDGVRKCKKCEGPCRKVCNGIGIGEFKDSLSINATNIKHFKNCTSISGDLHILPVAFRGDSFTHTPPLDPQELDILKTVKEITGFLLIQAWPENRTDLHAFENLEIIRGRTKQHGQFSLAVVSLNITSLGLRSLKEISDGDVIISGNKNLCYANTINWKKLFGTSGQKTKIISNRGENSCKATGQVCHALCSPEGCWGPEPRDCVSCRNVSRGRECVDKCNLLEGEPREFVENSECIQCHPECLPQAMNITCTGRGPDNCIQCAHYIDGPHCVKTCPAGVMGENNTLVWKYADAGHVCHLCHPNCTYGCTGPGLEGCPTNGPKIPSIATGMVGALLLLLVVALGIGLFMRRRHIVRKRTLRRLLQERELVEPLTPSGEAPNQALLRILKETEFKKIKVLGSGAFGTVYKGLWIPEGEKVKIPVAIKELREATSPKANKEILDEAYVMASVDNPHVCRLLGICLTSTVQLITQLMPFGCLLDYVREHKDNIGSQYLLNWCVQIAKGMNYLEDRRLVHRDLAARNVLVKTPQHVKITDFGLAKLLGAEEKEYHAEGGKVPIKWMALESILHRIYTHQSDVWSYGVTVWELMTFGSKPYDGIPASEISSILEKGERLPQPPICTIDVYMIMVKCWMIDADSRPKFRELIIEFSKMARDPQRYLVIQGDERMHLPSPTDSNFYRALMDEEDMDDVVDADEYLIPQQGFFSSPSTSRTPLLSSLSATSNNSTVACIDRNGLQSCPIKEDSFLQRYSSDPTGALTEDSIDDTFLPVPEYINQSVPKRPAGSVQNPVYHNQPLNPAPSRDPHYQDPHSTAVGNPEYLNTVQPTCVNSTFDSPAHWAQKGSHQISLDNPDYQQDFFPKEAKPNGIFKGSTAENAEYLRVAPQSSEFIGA
Protocol: EGFR binding affinity was determined using a time-resolved fluorescence resonance energy transfer (TR-FRET) methodology. […] Recombinant EGFR and all LanthaScreen™ components were purchased from Invitrogen. Measurements were performed in a reaction volume of 30 μL using half-area 96-well assay plates. […] Binding affinity was determined for each compound by measuring TR-FRET signal at various concentrations of compound and plotting the relative fluorescence units against the inhibitor concentration to estimate the IC50 from log[Inhibitor] vs response using the Variable Slope model in Graphpad prism from Graphpad software (San Diego, Calif.).

[3] = biological target: T3, Recombinant BTK^WT kinase (Homo sapiens, UniProt Q06187); experiment: BTK WT binding affinity (LanthaScreen TR-FRET); conditions: Kinase Tracer 236, 5 h incubation
T3 construct: purchased Invitrogen
T3 sequence (Q06187 whole entry): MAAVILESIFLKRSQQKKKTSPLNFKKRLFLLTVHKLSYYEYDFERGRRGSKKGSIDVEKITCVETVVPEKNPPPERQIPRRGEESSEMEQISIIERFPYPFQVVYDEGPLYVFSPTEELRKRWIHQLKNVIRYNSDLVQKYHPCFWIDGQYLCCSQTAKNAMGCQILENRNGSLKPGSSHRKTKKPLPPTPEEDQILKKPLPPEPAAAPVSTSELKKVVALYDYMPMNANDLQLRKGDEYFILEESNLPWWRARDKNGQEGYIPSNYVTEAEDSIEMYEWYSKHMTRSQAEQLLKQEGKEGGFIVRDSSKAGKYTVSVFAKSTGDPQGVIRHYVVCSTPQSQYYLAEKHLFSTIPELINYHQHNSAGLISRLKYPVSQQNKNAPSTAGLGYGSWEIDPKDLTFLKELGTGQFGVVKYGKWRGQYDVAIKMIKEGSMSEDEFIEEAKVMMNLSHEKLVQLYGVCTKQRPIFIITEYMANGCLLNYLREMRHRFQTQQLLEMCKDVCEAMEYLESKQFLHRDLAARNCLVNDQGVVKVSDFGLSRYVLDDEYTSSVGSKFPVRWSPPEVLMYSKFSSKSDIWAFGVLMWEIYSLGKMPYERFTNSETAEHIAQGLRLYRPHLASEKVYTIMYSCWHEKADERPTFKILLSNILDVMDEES
Protocol: as §1, with “BTK^WT binding” for “BTK^C481S binding”, “methodology. 2.5” for “methodology. 5”, “and 15” for “and 30”, “Recombinant BTK” for “Recombinant BTK^C481S”, “kinase” for “kinase was purchased from SignalChem”

T1 sequence (Q06187 whole entry C481S): as the sequence (Q06187 whole entry) above, with C481S counted along it

| IC50 [1] [nM] | IC50 [2] [nM] | IC50 (Recombinant EGFR) [nM] | IC50 [3] [nM] | IC50 ([2]; Homo sapiens, OCI-Ly10, 72 h) [nM] | SMILES |
| --- | --- | --- | --- | --- | --- |
| < 10 | 10 to 100 | 100 to 1000 | < 10 |  | COc1ccccc1C(=O)NCc1ccc(-c2nn(C3CCC(C(=O)N(C)C)CC3)c(N)c2C(N)=O)cc1 (single isomer, unassigned) [Example 57a, 5-amino-1-[4-(dimethylcarbamoyl)cyclohexyl]-3-[4-[[(2-methoxybenzoyl)amino]methyl]phenyl]pyrazole-4-carboxamide] |
| < 10 |  | > 10000 | < 10 | 10 to 100 | COc1ccc(F)cc1C(=O)NCc1ccc(-c2nn(C3CCCOC3)c(N)c2C(N)=O)c(F)c1 (stereo not drawn) [Example 107, 5-amino-3-[2-fluoro-4-[[(5-fluoro-2-methoxy-benzoyl)amino]methyl]phenyl]-1-tetrahydropyran-3-yl-pyrazole-4-carboxamide] |
| < 10 |  | 1000 to 10000 | < 10 | 10 to 100 | COc1ccc(F)cc1C(=O)NCc1ccc(-c2nn(C3CCCOC3)c(N)c2C(N)=O)cc1 (stereo not drawn) [Example 113, 5-amino-3-[4-[[(5-fluoro-2-methoxy-benzoyl)amino]methyl]phenyl]-1-tetrahydropyran-3-yl-pyrazole-4-carboxamide] |
| < 10 |  | 100 to 1000 | < 10 | 10 to 100 | COc1ccccc1C(=O)NCc1ccc(-c2nn(-c3cccc(F)c3)c(N)c2C(N)=O)cc1 [Example 32, 5-amino-1-(3-fluorophenyl)-3-[4-[[(2-methoxybenzoyl)amino]methyl]phenyl]pyrazole-4-carboxamide] |
| < 10 |  | 1000 to 10000 | 10 to 100 | 100 to 1000 | COc1ccccc1C(=O)NCc1ccc(-c2nn(-c3ccncc3)c(N)c2C(N)=O)cc1 [Example 54, 5-amino-3-[4-[[(2-methoxybenzoyl)amino]methyl]phenyl]-1-(4-pyridyl)pyrazole-4-carboxamide] |
| < 10 |  | 100 to 1000 | < 10 | 10 to 100 | COc1ccccc1C(=O)NCc1ccc(-c2nn(-c3ccc(C)cc3)c(N)c2C(N)=O)cc1 [Example 44, 5-amino-3-[4-[[(2-methoxybenzoyl)amino]methyl]phenyl]-1-(p-tolyl)pyrazole-4-carboxamide] |
| < 10 |  | 1000 to 10000 | < 10 | 100 to 1000 | COc1ccccc1C(=O)NCc1ccc(-c2nn(-c3ccc(F)c(F)c3)c(N)c2C(N)=O)cc1 [Example 98, 5-amino-1-(3,4-difluorophenyl)-3-[4-[[(2-methoxybenzoyl)amino]methyl]phenyl]pyrazole-4-carboxamide] |
| < 10 |  | 1000 to 10000 | < 10 | 10 to 100 | COc1ccc(F)cc1C(=O)NCc1ccc(-c2nn(CC(C)C(F)(F)F)c(N)c2C(N)=O)cc1 (stereo not drawn) [Example 176, 5-amino-3-[4-[[(5-fluoro-2-methoxy-benzoyl)amino]methyl]phenyl]-1-(3,3,3-trifluoro-2-methyl-propyl)pyrazole-4-carboxamide] |
| 10 to 100 |  | > 10000 | 100 to 1000 | 100 to 1000 | COCOCCn1nc(-c2ccc(CNC(=O)c3ccccc3OC)cc2)c(C(N)=O)c1N [Example 7, 5-amino-3-[4-[[(2-methoxybenzoyl)amino]methyl]phenyl]-1-[2-(methoxymethoxy)ethyl]pyrazole-4-carboxamide] |
| < 10 |  | 100 to 1000 | < 10 | 10 to 100 | COc1ccccc1C(=O)NCc1ccc(-c2nn(C(C)C(F)(F)F)c(N)c2C(N)=O)cc1 (stereo not drawn) [Example 121, 5-amino-3-[4-[[(2-methoxybenzoyl)amino]methyl]phenyl]-1-(2,2,2-trifluoro-1-methyl-ethyl)pyrazole-4-carboxamide] |
| < 10 |  | 1000 to 10000 | < 10 | 10 to 100 | COc1ccccc1C(=O)NCc1ccc(-c2nn(C3CC(=O)c4ccccc43)c(N)c2C(N)=O)cc1 (stereo not drawn) [Example 59, 5-amino-3-[4-[[(2-methoxybenzoyl)amino]methyl]phenyl]-1-(3-oxoindan-1-yl)pyrazole-4-carboxamide] |
| < 10 |  |  | < 10 | 100 to 1000 | COc1ccccc1C(=O)NCc1ccc(-c2nn([C@@H]3CCC[C@H]3O)c(N)c2C(N)=O)cc1 (relative stereo) [Example 2, 5-Amino-1-[(1R*,2R*)-2-hydroxycyclopentyl]-3-[4-[[(2-methoxybenzoyl)amino]methyl]phenyl]pyrazole-4-carboxamide] |
|  |  | > 10000 | > 10000 |  | COc1ccccc1C(=O)NCc1ccc(-c2nn(C[C@H]3CCCNC3)c(N)c2C(N)=O)cc1 [Example 42, 5-amino-3-[4-[[(2-methoxybenzoyl)amino]methyl]phenyl]-1-[[(3S)-3-piperidyl]methyl]pyrazole-4-carboxamide] |
|  |  |  | > 10000 |  | CNC(=O)c1c(-c2ccc(CNC(=O)c3ccccc3OC)cc2)nn(C2CCCC2)c1N [Example 69, 5-amino-1-cyclopentyl-3-[4-[[(2-methoxybenzoyl)amino]methyl]phenyl]-N-methyl-pyrazole-4-carboxamide] |
| < 10 |  | 1000 to 10000 | < 10 |  | COc1ccc(F)cc1C(=O)NCc1ccc(-c2nn(C(C3CC3)C(F)(F)F)c(N)c2C(N)=O)cc1 (stereo not drawn) [Example 188, 5-amino-1-(1-cyclopropyl-2,2,2-trifluoro-ethyl)-3-[4-[[(5-fluoro-2-methoxy-benzoyl)amino]methyl]phenyl]pyrazole-4-carboxamide] |
| 1000 to 10000 |  | 1000 to 10000 | 1000 to 10000 |  | COc1ccccc1C(=O)NC(CO)c1ccc(-c2nn(C3CCCC3)c(N)c2C(N)=O)cc1C (stereo not drawn) [Example 185, 5-amino-1-cyclopentyl-3-[4-[2-hydroxy-1-[(2-methoxybenzoyl)amino]ethyl]-3-methyl-phenyl]pyrazole-4-carboxamide] |
| 100 to 1000 |  |  | 100 to 1000 | 1000 to 10000 | COc1ccccc1C(=O)NCc1ccc(-c2nn(C3CCCC3)c(Nc3ccccc3)c2C(N)=O)cc1 [Example 56, 5-anilino-1-cyclopentyl-3-[4-[[(2-methoxybenzoyl)amino]methyl]phenyl]pyrazole-4-carboxamide] |
|  |  |  | 100 to 1000 |  | COc1ccccc1C(=O)NCc1ccc(-c2nn(-c3nc(C)cs3)c(N)c2C(N)=O)cc1 [Example 67, 5-amino-3-[4-[[(2-methoxybenzoyl)amino]methyl]phenyl]-1-(4-methylthiazol-2-yl)pyrazole-4-carboxamide] |
|  | 10 to 100 | 100 to 1000 | < 10 |  | COc1ccccc1C(=O)NCc1ccc(-c2nn(C3CCC(C)(O)CC3)c(N)c2C(N)=O)cc1 (single isomer, unassigned) [Example 27, 5-Amino-1-(4-hydroxy-4-methyl-cyclohexyl)-3-[4-[[(2-methoxybenzoyl)amino]methyl]phenyl]pyrazole-4-carboxamide] |
| 10 to 100 |  | > 10000 | 100 to 1000 |  | COc1ccc(F)cc1C(=O)NCc1c(F)cc(-c2nn(C3CCOCC3)c(N)c2C(N)=O)cc1F [Example 133, 5-amino-3-[3,5-difluoro-4-[[(5-fluoro-2-methoxy-benzoyl)amino]methyl]phenyl]-1-tetrahydropyran-4-yl-pyrazole-4-carboxamide] |
| 10 to 100 |  | > 10000 | 100 to 1000 |  | COc1ccccc1C(=O)NCc1c(F)cc(-c2nn(C3CCOCC3)c(N)c2C(N)=O)cc1F [Example 132, 5-amino-3-[3,5-difluoro-4-[[(2-methoxybenzoyl)amino]methyl]phenyl]-1-tetrahydropyran-4-yl-pyrazole-4-carboxamide] |
